These are literature values, as cited in patent publication US11013707B2, “Administration of oral methyldopa” (ImmunoMolecular Therapeutics, LLC., priority 2018, dated 2021).

Like-named read-outs stand apart in the source and are kept apart here.

The conditions of data set [1]: man, average.
For data set [2] the following is noted: in vivo.

On to `C[C@@](N)(Cc1ccc(O)c(O)c1)C(=O)O` [D-α-methyldopa, D-α-Methyl-3,4-dihydroxyphenylalanine], for which the “absorption compared with the L isomer” value (humans, Au et al. 1972) is “much less readily absorbed”. For the same molecule, where the note is “literature, patients with hypertension”, the pharmacologic activity entry is given as “no pharmacologic activity”.
Take `C[C@](N)(Cc1ccc(O)c(O)c1)C(=O)O` [α-methyldopa, L-α-Methyl-3,4-dihydroxyphenylalanine]: the “fraction of the dose available to the systemic circulation as free α-methyldopa” value is 27% in data set [1] (administered as tablets) and 25% in data set [1] (after an oral solution). The half-life entry in data set [2] is recorded as “about 105 minutes”.
